Earlier results, collected in article PMC4457351 (Journal of Visualized Experiments : JoVE, 2014).

Conditions: read-out: Kd(calcium)

For Fluo-4, the Kd is given as ~0.345 µM.
